Laboratory results published in US10696615B2, “Prenylated hydroxystilbenes” (The University of Sydney, priority 2011, dated 2020).

How the values were obtained:
Format in all cases: cell-based, human
CCRF-CEM = test: NCI in vitro cancer screen, Leukemia
HL-60 (TB) = test: NCI in vitro cancer screen, Leukemia; conditions: HL-60 (TB)
K-562 = test: NCI in vitro cancer screen, Leukemia; conditions: K-562
RPMI-8226 = test: NCI in vitro cancer screen, Leukemia; conditions: RPMI-8226
A549/ATCC = test: NCI in vitro cancer screen, Non-Small Cell Lung Cancer
EKVX = test: as above
HOP-62 = test: as above; conditions: HOP-62
NCI-H322M = test: as above
COLO 205 = test: NCI in vitro cancer screen, Colon Cancer; conditions: COLO 205
HCC-2998 = test: NCI in vitro cancer screen, Colon Cancer; conditions: HCC-2998
HCT-116 = test: NCI in vitro cancer screen, Colon Cancer; conditions: HCT-116
HCT-15 = test: NCI in vitro cancer screen, Colon Cancer; conditions: HCT-15
HT29 = test: NCI in vitro cancer screen, Colon Cancer; conditions: HT29
SF-268 = test: NCI in vitro cancer screen, CNS Cancer; conditions: SF-268
SNB-75 = test: NCI in vitro cancer screen, CNS Cancer; conditions: Homo sapiens, SNB-75
M14 = test: NCI in vitro cancer screen, Melanoma; conditions: M14
SK-MEL-2 = test: NCI in vitro cancer screen, Melanoma; conditions: SK-MEL-2
SK-MEL-5 = test: NCI in vitro cancer screen, Melanoma; conditions: SK-MEL-5
UACC-62 = test: NCI in vitro cancer screen, Melanoma; conditions: UACC-62
OVCAR-3 = test: NCI in vitro cancer screen, Ovarian Cancer; conditions: OVCAR-3
OVCAR-4 = test: NCI in vitro cancer screen, Ovarian Cancer; conditions: OVCAR-4
OVCAR-5 = test: NCI in vitro cancer screen, Ovarian Cancer; conditions: OVCAR-5
OVCAR-8 = test: NCI in vitro cancer screen, Ovarian Cancer; conditions: OVCAR-8
ADR-RES (NCI/ADR-RES) = test: NCI in vitro cancer screen, Ovarian Cancer
SK-OV-3 = test: NCI in vitro cancer screen, Ovarian Cancer; conditions: SK-OV-3
786-0 = test: NCI in vitro cancer screen, Renal Cancer; conditions: 786-0
ACHN = test: NCI in vitro cancer screen, Renal Cancer
RXF-393 = test: NCI in vitro cancer screen, Renal Cancer; conditions: RXF-393
DU-145 = test: NCI in vitro cancer screen, Prostate Cancer; conditions: DU-145
HS 578T = test: NCI in vitro cancer screen, Breast Cancer
T-47D = test: NCI in vitro cancer screen, Breast Cancer
[1] = Homo sapiens, read-out: LC50 (the source's name)

## COc1cc(O)cc(/C=C/c2ccc(O)c(O)c2)c1CC=C(C)C [USYDS9, (E)-2-(3-methyl-2-buten-1-yl)-3′,4′,5-trihydroxy-3-methoxystilbene]
CCRF-CEM
  TGI: >100 µM
CCRF-CEM; Homo sapiens
  GI50: 2.14 µM
CCRF-CEM; [1]
  CC50: > 100 µM
HL-60 (TB)
  TGI: 0.43 µM
HL-60 (TB); Homo sapiens
  GI50: 0.2 µM
HL-60 (TB); [1]
  CC50: 0.95 µM
K-562; Homo sapiens, K562
  GI50: 0.33 µM
K-562; Homo sapiens, K562, read-out: LC50 (the source's name)
  CC50: > 100 µM
K-562
  TGI: 13.9 µM
RPMI-8226; Homo sapiens
  GI50: 0.45 µM
RPMI-8226; [1]
  CC50: > 100 µM
RPMI-8226
  TGI: >100 µM
A549/ATCC
  TGI: 41.5 µM
A549/ATCC; Homo sapiens
  GI50: 2.62 µM
A549/ATCC; [1]
  CC50: > 100 µM
EKVX
  TGI: >100 µM
EKVX; Homo sapiens
  GI50: 26.4 µM
EKVX; [1]
  CC50: > 100 µM
HOP-62
  TGI: >100 µM
HOP-62; Homo sapiens
  GI50: 2.87 µM
HOP-62; [1]
  CC50: > 100 µM
NCI-H322M
  TGI: >100 µM
NCI-H322M; Homo sapiens
  GI50: 0.76 µM
  LC50 (50% lethal concentration): > 100 µM
COLO 205
  TGI: 83.6 µM
COLO 205; Homo sapiens
  GI50: 21.7 µM
COLO 205; [1]
  CC50: > 100 µM
HCC-2998
  TGI: 21.2 µM
HCC-2998; Homo sapiens
  GI50: 4.18 µM
HCC-2998; [1]
  CC50: > 100 µM
HCT-116
  TGI: 12.8 µM
HCT-116; Homo sapiens
  GI50: 1.4 µM
  LC50 (concentration killing 50% of cells): 75 µM
HCT-15
  TGI: >100 µM
HCT-15; Homo sapiens
  GI50: 0.43 µM
HCT-15; [1]
  CC50: > 100 µM
HT29
  TGI: 46.6 µM
HT29; Homo sapiens, HT-29
  GI50: 18.6 µM
HT29; Homo sapiens, HT-29, read-out: LC50 (the source's name)
  CC50: > 100 µM
SF-268; Homo sapiens
  GI50: 0.63 µM
SF-268; [1]
  CC50: > 100 µM
SF-268
  TGI: 37.6 µM
SNB-75
  GI50: 0.24 µM
SNB-75; read-out: LC50 (the source's name)
  CC50: > 100 µM
M14; Homo sapiens
  GI50: 0.3 µM
M14; [1]
  CC50: > 100 µM
M14
  TGI: 5.69 µM
SK-MEL-2; Homo sapiens
  GI50: 2.17 µM
  LC50: > 100 µM
SK-MEL-2
  TGI: 12.1 µM
SK-MEL-5; Homo sapiens
  GI50: 0.39 µM
SK-MEL-5; [1]
  CC50: > 100 µM
SK-MEL-5
  TGI: 2.52 µM
UACC-62; Homo sapiens
  GI50: 3.22 µM
UACC-62; [1]
  CC50: > 100 µM
UACC-62
  TGI: 34.8 µM
OVCAR-3; Homo sapiens
  GI50: 0.9 µM
OVCAR-3; [1]
  CC50: 24.8 µM
OVCAR-3
  TGI: 3.84 µM
OVCAR-4; Homo sapiens
  GI50: 5.48 µM
OVCAR-4; [1]
  CC50: > 100 µM
OVCAR-4
  TGI: >100 µM
OVCAR-5; Homo sapiens
  GI50: 30.7 µM
OVCAR-5; [1]
  CC50: > 100 µM
OVCAR-5
  TGI: >100 µM
OVCAR-8; Homo sapiens
  GI50: 0.5 µM
OVCAR-8; [1]
  CC50: > 100 µM
OVCAR-8
  TGI: 38.3 µM
ADR-RES (NCI/ADR-RES); ADR-RES
  TGI: 3.69 µM
ADR-RES (NCI/ADR-RES); Homo sapiens, NCI/ADR-RES
  GI50: 0.29 µM
ADR-RES (NCI/ADR-RES); Homo sapiens, NCI/ADR-RES, read-out: LC50 (the source's name)
  CC50: > 100 µM
SK-OV-3; Homo sapiens
  GI50: 0.5 µM
SK-OV-3; [1]
  CC50: > 100 µM
SK-OV-3
  TGI: 5.12 µM
786-0
  TGI: 18.7 µM
786-0; Homo sapiens
  GI50: 2.99 µM
  LC50 (50% net cell kill): > 100 µM
ACHN
  TGI: >100 µM
ACHN; Homo sapiens
  GI50: 0.66 µM
ACHN; [1]
  CC50: > 100 µM
RXF-393; Homo sapiens
  GI50: 0.23 µM
RXF-393; [1]
  CC50: > 100 µM
RXF-393
  TGI: 0.63 µM
DU-145
  TGI: 2.62 µM
DU-145; Homo sapiens
  GI50: 0.35 µM
DU-145; [1]
  CC50: > 100 µM
HS 578T
  TGI: 0.73 µM
HS 578T; Homo sapiens
  GI50: 0.2 µM
HS 578T; [1]
  CC50: > 100 µM
T-47D
  TGI: 36.9 µM
T-47D; Homo sapiens, T47D
  GI50: 4.78 µM
T-47D; Homo sapiens, T47D, read-out: LC50 (the source's name)
  CC50: > 100 µM
